{"source": "paper PMC6482847", "about": "(Molecular microbiology, 2019)", "target": "T1, FtsZAT (Agrobacterium fabrum, UniProt A9CIB1)", "T1 sequence (A9CIB1 1-583)": "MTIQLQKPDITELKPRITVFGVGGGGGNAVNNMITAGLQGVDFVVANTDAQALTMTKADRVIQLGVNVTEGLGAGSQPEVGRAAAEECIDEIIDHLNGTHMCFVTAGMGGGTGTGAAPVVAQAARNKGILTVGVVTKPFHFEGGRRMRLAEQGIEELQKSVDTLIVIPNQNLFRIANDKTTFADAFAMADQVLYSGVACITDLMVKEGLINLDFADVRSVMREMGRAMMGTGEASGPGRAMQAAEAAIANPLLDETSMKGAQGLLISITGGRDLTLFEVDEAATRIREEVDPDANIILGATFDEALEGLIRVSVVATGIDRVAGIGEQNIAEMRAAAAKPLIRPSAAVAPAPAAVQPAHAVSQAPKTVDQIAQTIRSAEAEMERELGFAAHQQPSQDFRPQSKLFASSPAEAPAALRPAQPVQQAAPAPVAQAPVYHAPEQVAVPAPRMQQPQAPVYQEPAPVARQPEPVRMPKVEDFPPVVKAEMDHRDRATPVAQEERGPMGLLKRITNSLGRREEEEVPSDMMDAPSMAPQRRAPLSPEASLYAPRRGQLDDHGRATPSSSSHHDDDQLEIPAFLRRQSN", "experiment": "GTPase assay, inorganic phosphate release", "type": "biochemical", "settings": "2 mM GTP, 8 µM FtsZAT, 2.5 mM MgCl2, 50 mM HEPES-KOH pH 7.2, 50 mM KCl, 0.1 mM EDTA", "data": [{"molecule": "Nc1nc2c(ncn2[C@@H]2O[C@H](COP(=O)(O)OP(=O)(O)OP(=O)(O)O)[C@@H](O)[C@H]2O)c(=O)[nH]1", "note": "[GTP]", "values": [{"measurement": "GTPase assay, inorganic phosphate release (colorimetric)", "result": "it rapidly releases inorganic phosphate suggesting that GTP is hydrolyzed"}]}]}
